Measured values published in ChEMBL document CHEMBL6083289, “Deciphering the Therapeutic Potential of Novel Pentyloxyamide-Based Class I, IIb HDAC Inhibitors against Therapy-Resistant Leukemia” (J Med Chem, 2024).

Key:
[1] = target: T1, Protein deacetylase HDAC6 (Homo sapiens, UniProt Q9UBN7); assay: Inhibition of human recombinant HDAC6 using RHKKAc as fluorogenic substrate incubated for 90 mins by fluorescence based analysis
T1 sequence (Q9UBN7 whole entry): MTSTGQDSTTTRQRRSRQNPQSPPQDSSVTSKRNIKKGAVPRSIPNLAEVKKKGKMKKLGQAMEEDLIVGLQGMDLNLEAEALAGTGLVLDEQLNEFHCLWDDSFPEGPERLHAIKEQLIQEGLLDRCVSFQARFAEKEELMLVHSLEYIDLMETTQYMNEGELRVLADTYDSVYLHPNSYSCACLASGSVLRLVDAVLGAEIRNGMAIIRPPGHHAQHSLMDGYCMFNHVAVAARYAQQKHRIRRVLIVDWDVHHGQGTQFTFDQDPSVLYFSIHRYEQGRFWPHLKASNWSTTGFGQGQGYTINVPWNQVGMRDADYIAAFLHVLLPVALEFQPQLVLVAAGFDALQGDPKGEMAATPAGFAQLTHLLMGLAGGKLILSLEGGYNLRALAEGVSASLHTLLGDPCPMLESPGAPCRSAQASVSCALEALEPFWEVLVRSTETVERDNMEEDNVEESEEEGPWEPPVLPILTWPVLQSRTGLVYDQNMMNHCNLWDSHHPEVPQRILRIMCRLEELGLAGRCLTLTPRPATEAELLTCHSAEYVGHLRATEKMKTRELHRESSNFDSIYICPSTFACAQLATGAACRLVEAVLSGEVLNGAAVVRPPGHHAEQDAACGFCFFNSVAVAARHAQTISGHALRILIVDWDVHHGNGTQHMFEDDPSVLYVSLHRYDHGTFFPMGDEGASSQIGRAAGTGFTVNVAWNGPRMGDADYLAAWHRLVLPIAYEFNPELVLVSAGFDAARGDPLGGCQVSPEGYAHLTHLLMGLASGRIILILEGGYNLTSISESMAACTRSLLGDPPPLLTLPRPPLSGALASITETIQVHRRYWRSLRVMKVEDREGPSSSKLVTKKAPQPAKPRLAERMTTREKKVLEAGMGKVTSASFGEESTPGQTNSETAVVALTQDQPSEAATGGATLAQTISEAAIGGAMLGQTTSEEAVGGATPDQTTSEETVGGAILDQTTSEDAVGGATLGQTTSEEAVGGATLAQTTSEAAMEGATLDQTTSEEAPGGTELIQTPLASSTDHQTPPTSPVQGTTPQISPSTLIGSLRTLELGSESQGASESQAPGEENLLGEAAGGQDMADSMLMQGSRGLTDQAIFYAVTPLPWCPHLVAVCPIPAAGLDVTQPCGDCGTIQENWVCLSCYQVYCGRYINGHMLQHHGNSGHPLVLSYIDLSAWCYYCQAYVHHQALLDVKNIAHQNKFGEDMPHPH

[2] = target: Histone deacetylase 4 (Homo sapiens, UniProt P56524)
Description: Inhibition of human recombinant HDAC4 using Boc-Lys(trifluoroacetyl)-AMC) as fluorogenic substrate incubated for 90 mins by fluorescence based analysis

[3] = target: T2, Histone deacetylase 8 (Homo sapiens, UniProt Q9BY41)
T2 sequence (Q9BY41 whole entry): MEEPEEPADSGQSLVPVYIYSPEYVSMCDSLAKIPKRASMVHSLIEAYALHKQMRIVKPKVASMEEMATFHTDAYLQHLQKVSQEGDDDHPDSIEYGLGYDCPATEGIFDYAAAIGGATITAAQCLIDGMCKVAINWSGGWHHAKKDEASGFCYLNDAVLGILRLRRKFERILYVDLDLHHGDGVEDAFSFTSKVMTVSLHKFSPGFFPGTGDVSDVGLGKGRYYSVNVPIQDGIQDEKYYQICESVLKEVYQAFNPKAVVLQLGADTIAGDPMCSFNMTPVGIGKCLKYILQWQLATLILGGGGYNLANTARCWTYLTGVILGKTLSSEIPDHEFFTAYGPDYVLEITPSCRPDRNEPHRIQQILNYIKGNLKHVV
Description: Inhibition of human recombinant HDAC8 using RHKAcKAc as fluorogenic substrate incubated for 90 mins by fluorescence based analysis

[4] = target: Histone deacetylase 3/Nuclear receptor corepressor 2 (HDAC3/NCoR2) (Homo sapiens, UniProt O15379); assay: Inhibition of human recombinant Human HDAC3/NCOR2 using RHKKAc as fluorogenic substrate incubated for 90 mins by fluorescence based analysis; type: protein-complex assay
[5] = target: T3, Histone deacetylase 11 (Homo sapiens, UniProt Q96DB2)
T3 sequence (Q96DB2 whole entry): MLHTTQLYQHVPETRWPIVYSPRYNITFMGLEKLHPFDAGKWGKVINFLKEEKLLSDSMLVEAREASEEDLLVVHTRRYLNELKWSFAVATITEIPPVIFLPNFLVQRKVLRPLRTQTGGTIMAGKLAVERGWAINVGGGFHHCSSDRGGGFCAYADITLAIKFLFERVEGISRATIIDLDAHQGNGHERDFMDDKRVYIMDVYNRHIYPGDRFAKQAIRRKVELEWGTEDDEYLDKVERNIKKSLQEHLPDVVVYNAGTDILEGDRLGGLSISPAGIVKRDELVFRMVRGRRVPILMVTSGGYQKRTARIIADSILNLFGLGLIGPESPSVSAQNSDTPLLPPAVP

[6] = target: Histone deacetylase 1 (Homo sapiens, UniProt Q13547)
Description: Inhibition of human recombinant HDAC1 using RHKKAc as fluorogenic substrate incubated for 90 mins by fluorescence based analysis

[7] = system: HPBALL; assay: Antiproliferative activity against human HPBALL cells assessed as inhibition of cell growth incubated for 72 hrs by celltiter-glo assay; type: functional, cell-based
[8] = system: K562; assay: cells; type: functional, cell-based; details: Homo sapiens, K562, 72 h
[9] = system: HL-60; assay: cells; details: Homo sapiens, HL-60, 72 h
[10] = Ratio of drug concentration in human blood to plasma; type: ADME, cell-free
[11] = Metabolic stability in human liver microsomes assessed as half life measured upto 60 mins in presence of NADPH regenerating system LC-MS analysis
[12] = AUClast in mouse at 50 mg/kg, po by LC/MS/MS analysis; details: in vivo
[13] = Half life in mouse at 50 mg/kg, po by LC/MS/MS analysis; details: in vivo
[14] = Tmax in Balb/c mouse at 50 mg/kg, po measured upto 6 hrs by LC-MS/MS analysis; type: ADME, organism-based; details: in vivo
[15] = Half life in Balb/c mouse at 50 mg/kg, po measured upto 6 hrs by LC-MS/MS analysis; details: in vivo
[16] = in vivo; details: Balb/c, mouse, po, 50 mg/kg

Sequence of Histone deacetylase 4 (P56524 whole entry): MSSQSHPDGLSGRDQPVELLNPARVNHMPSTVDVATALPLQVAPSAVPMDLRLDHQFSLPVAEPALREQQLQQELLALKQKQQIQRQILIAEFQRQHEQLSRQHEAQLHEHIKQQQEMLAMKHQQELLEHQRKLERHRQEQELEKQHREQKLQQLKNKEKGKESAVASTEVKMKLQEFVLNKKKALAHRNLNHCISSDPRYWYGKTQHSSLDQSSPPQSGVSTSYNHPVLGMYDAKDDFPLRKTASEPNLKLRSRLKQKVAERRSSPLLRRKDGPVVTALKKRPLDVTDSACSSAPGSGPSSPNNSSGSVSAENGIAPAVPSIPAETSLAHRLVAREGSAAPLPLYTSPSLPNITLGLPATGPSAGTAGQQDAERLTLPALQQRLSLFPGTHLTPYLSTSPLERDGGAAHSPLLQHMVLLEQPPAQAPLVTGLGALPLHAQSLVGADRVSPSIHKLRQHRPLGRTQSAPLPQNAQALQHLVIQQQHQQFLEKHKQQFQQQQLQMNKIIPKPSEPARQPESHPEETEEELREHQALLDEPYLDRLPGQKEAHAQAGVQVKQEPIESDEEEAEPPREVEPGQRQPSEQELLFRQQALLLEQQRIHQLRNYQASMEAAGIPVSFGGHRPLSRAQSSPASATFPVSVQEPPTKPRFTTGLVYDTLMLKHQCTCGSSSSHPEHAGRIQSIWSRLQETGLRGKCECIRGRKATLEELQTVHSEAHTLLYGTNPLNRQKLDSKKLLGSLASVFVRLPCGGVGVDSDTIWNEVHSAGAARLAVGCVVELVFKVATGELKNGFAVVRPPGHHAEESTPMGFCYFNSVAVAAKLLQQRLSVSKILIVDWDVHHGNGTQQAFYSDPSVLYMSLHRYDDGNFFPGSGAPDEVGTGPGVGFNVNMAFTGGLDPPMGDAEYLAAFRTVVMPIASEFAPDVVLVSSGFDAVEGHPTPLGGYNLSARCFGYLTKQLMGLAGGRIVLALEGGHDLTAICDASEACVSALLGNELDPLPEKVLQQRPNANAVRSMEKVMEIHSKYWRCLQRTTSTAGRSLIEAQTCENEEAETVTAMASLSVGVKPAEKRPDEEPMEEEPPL
Sequence of Histone deacetylase 3/Nuclear receptor corepressor 2 (HDAC3/NCoR2) (O15379 whole entry): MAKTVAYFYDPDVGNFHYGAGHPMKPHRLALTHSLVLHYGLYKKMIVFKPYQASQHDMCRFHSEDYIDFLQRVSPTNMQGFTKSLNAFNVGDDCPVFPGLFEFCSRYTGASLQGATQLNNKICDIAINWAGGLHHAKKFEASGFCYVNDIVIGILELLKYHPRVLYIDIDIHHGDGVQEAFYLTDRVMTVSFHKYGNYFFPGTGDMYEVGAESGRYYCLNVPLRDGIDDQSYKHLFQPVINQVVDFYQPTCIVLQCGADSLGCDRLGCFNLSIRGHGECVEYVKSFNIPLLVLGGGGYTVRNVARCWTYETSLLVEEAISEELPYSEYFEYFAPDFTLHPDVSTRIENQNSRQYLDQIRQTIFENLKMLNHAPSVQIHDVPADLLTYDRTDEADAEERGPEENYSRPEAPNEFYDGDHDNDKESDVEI
Sequence of Histone deacetylase 3/Nuclear receptor corepressor 2 (HDAC3/NCoR2) (Q9Y618 whole entry, further chain): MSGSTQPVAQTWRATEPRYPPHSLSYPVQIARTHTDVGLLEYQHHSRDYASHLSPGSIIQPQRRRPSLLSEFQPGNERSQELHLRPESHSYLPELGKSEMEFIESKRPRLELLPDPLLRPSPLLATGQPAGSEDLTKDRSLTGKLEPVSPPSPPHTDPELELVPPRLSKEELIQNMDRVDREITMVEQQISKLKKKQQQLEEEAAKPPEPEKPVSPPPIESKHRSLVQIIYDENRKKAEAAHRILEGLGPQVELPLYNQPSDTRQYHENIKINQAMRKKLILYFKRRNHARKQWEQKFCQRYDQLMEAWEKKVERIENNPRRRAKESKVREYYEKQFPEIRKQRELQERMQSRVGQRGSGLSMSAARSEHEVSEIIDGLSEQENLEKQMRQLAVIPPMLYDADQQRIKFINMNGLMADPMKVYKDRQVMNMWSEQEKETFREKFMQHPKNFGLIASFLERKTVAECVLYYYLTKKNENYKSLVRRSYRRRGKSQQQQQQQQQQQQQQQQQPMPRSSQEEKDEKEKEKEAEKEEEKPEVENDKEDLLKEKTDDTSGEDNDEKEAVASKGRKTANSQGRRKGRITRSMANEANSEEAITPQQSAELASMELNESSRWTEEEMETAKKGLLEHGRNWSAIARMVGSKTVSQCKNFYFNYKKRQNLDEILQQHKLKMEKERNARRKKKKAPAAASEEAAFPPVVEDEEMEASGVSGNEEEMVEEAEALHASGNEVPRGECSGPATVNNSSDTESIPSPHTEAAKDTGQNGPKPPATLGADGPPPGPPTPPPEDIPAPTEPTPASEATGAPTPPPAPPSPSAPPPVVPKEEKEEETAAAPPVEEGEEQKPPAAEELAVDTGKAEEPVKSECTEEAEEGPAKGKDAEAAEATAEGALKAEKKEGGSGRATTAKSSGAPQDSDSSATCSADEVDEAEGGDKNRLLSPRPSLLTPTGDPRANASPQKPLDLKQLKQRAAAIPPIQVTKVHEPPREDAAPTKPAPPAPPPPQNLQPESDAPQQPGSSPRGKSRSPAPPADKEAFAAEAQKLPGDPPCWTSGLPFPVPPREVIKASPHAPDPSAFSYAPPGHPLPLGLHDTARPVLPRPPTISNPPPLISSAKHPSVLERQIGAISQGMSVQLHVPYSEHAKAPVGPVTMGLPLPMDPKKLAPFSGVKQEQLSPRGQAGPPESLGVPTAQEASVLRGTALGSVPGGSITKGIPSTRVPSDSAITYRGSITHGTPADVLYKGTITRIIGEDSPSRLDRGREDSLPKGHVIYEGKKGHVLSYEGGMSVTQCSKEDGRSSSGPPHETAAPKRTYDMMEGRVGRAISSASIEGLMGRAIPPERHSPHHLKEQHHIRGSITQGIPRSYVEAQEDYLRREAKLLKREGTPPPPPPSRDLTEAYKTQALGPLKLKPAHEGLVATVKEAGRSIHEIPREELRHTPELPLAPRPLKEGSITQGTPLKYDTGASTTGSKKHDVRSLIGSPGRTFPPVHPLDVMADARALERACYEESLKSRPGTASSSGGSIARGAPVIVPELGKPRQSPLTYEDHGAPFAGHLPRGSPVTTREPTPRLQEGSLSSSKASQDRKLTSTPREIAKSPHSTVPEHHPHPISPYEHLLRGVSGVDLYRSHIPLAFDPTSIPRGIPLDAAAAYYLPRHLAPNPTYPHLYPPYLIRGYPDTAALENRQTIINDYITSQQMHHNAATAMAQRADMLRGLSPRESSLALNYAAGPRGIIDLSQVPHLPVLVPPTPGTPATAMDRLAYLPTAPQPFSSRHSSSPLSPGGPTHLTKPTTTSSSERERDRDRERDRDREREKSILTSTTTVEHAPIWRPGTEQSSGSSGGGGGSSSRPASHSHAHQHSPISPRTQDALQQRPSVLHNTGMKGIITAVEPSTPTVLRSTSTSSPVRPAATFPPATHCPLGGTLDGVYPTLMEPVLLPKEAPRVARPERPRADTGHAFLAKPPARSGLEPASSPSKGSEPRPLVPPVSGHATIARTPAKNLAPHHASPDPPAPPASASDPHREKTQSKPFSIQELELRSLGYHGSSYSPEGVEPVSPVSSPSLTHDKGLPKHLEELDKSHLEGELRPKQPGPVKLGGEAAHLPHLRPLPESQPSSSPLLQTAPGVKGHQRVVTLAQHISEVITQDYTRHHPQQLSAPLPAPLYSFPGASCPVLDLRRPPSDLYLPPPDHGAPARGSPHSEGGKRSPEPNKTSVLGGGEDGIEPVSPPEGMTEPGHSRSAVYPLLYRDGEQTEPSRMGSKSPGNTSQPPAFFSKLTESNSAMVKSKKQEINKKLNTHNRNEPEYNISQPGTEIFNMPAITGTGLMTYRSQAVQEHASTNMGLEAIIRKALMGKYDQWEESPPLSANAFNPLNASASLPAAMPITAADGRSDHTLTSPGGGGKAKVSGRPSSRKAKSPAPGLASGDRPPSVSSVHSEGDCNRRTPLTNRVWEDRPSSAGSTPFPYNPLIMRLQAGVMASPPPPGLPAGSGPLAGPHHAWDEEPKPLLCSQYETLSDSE
Sequence of Histone deacetylase 1 (Q13547 whole entry): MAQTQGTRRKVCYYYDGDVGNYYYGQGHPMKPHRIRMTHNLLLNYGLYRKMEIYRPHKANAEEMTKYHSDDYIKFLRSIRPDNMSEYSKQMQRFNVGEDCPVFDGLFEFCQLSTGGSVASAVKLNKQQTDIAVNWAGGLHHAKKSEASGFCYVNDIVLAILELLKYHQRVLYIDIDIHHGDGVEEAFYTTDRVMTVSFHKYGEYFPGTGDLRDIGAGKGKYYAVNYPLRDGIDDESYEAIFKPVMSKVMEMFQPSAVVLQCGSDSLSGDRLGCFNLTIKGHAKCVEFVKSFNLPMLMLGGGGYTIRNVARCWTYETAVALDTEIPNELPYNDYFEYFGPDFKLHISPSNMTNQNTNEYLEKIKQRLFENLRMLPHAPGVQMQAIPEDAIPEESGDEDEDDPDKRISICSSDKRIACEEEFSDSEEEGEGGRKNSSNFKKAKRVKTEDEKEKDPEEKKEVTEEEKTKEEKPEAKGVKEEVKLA

SMILES	IC50 [1] [nM]	IC50 [2] [nM]	IC50 [3] [nM]	other results
O=C(CCCCCONC(=O)c1nc(-c2ccc(C(F)(F)F)cc2)cs1)NO	108	> 100000	4860	–
COc1ccccc1-c1csc(C(=O)NOCCCCCC(=O)NO)n1	26	> 100000	2160	–
O=C(CCCCCONC(=O)c1nc(-c2ccc(F)cc2)cs1)NO	45	> 100000	6380	–
O=C(CCCCCONC(=O)c1nc(-c2ccc(N3CCCC3)cc2)cs1)NO	64	> 100000	4800	IC50 [4]: 48 nM; IC50 [5]: 36000 nM; IC50 [6]: 12 nM
O=C(CCCCCONC(=O)c1nc(-c2ccccc2F)cs1)NO	51	> 100000	1290	–
O=C(CCCCCONC(=O)c1nc(-c2cc3ccccc3o2)cs1)NO	30	> 100000	3680	–
O=C(CCCCCONC(=O)c1nc(-c2cccc(F)c2)cs1)NO	47	> 100000	2320	–
COc1cccc(-c2csc(C(=O)NOCCCCCC(=O)NO)n2)c1	26	> 100000	5200	–
Cc1ccc(-c2csc(C(=O)NOCCCCCC(=O)NO)n2)cc1	64	> 100000	7010	–
O=C(CCCCCONC(=O)c1nc(-c2ccsc2)cs1)NO	49	> 100000	5410	–
COc1ccc(-c2csc(C(=O)NOCCCCCC(=O)NO)n2)cc1	38	> 100000	5750	IC50 [4]: 13 nM; IC50 [5]: 26000 nM; IC50 [6]: 40 nM
O=C(CCCCCONC(=O)c1nc(-c2ccccc2)cs1)NO	75	> 100000	4010	–
O=C(CCCCCONC(=O)c1nc(-c2cccs2)cs1)NO	81	> 100000	2510	–
O=C(/C=C/c1cccc(S(=O)(=O)Nc2ccccc2)c1)NO [BELINOSTAT]	–	–	–	IC50 [7]: 269 nM; IC50 [8]: 218 nM; IC50 [9]: 158 nM
COc1ccccc1OCCNCC(O)COc1cccc2[nH]c3ccccc3c12 (configuration not stated) [CARVEDILOL]	–	–	–	blood plasma ratio [10]: 0.76
O=C(CCCCCCNC(=O)c1cnc(N(c2ccccc2)c2ccccc2)nc1)NO [RICOLINOSTAT]	–	–	–	IC50 [7]: 2580 nM; IC50 [8]: 2930 nM; IC50 [9]: 2190 nM
CC(=O)Nc1ccc(C(=O)Nc2ccccc2N)cc1 [TACEDINALINE]	–	–	–	IC50 [7]: 4700 nM; IC50 [8]: 5330 nM; IC50 [9]: 1580 nM
O=C(CCCCCCC(=O)Nc1ccccc1)NO [VORINOSTAT]	–	–	–	IC50 [7]: 824 nM; half-life at 1 h [11]: 35.9 min; AUC(0-t) [12]: 619 ng·h/mL; half-life [13]: 45 min; Tmax [14]: 4.8 min; half-life at 6 h [15]: 48 min; AUC(0-t) at 6 h [16]: 347 ng·h/mL
